{"source": "patent US11278564B2", "about": "“Brain function-improving agent, food, and medicine using lipopolysaccharide” (Control of Innate Immunity Technology Research Association, priority 2017, dated 2022)", "origin": "cited, not measured here", "details": "intraperitoneal injection (NPL 5)", "data": [{"substance": "monophosphoryl lipid A [MPL]", "values": [{"measurement": "Aβ intracerebral deposition", "value": "Aβ intracerebral deposition suppressing action"}, {"measurement": "learning function", "value": "learning function-improving action"}]}]}
